This is an account of results in patent publication US20210322785A1, “COMPOSITIONS AND METHODS FOR TREATING WOUNDS” (C.P. MEDICAL CORPORATION, priority 2018, published 2021).

Data set [1] can be described thus: Drug elution from polymer into PBS at 37° C. The format is physicochemical. The conditions noted are these: within the first three days; polymer prepared with Nolvasan, 2% chlorhexidine dose (50 mg); PBS 37° C. Here is the method:
A Thermo Scientific GENESYS 10S UV-Vis spectrophotometer was used to quantify the release of various drugs from several polymers. First, the reference drug or drug solution was dissolved in an appropriate solvent. Typically, phosphate buffered saline (PBS), ethanol or dimethylsulfoxide (DMSO) were used as the solvent. Next, the optimal absorption peak for identifying and quantifying the drug was determined by performing a scan of the drug solution between 200 and 1000 nm. With the absorption peak selected, a reference curve was established by measuring the peak absorbance for various concentrations of the drug. […]
Elution samples were collected daily by decanting the PBS solution from the polymer. The volume of sample collected was recorded. […] The elution sample was analyzed by first diluting the sample in the appropriate solvent using analytical pipettes such that the measured absorbance was in the range determined by the reference curve. The dilution factor was recorded. The drug concentration was calculated from the measured absorbance via the reference curve and the dilution factor. The drug amount was calculated by multiplying the drug concentration with the sample volume. The percent elution for that day was calculated by dividing the drug amount by the total amount of drug administered. […]

Data set [2] is described as follows: Hydrogel surface spread test. The conditions noted are these: drop from 22 gauge needle on 97.5% water hydrogel surface, incline about 30°. Also on record: key: 1: no spreading, tight drops that stay in place; 2: mild spreading, drops drip slowly down; 3: severe spreading, drops completely wet surface. The format is physicochemical. On the procedure:
To model the performance of the polymer solutions on a hydrophilic surface the extent of spreading and dripping of droplets on a high water content biocompatible hydrogel polymer matrix surface at an incline of about 30° was recorded. […] The solution was stirred with a spatula for 10 to 20 seconds and allowed to gel, which typically took 5 to 10 minutes. The water content of the resulting polymer was 97.5%.
The test was performed by first preparing the polymer solution in the usual fashion. After thorough mixing, the polymer solution was dispensed dropwise through a 22 gauge needle onto the biocompatible biocompatible hydrogel polymer matrix surface. The results are shown in Table 9B and were divided into three general categories: 1) no spreading, tight drops that stay in place; 2) mild spreading, drops drip slowly down; 3) severe spreading, drops completely wet surface. Water is in category 3.

As to `[H]/N=C(\N/C(=N/[H])NCCCCCCNC(=N)NC(=N)Nc1ccc(Cl)cc1)Nc1ccc(Cl)cc1` [chlorhexidine], in data set [1], the “chlorhexidine released from polymer” value is reported as “Almost half”.
As to Water, the “hydrogel surface spread test category” value in data set [2] came out at 3.
